In patent US10179770B2, “Quinolines derivatives as novel anticancer agents” (GENOSCIENCE PHARMA, priority 2013, dated 2019):
Where a name gives a salt, the structure may show the parent alone. Read-outs that look alike come from different tables or passages of the source.

Experiments:
[1] = test system: MOLM-14; assay: Cell proliferation assay at 10 μM; assay type: cell-based, human; conditions: Homo sapiens, read-out: Cell viability observed at 10 μM
Protocol: (§1) The human melanoma cell line A375 and colorectal carcinoma cell line HCT-116 were cultured in Dulbecco's modified Eagle's medium supplemented with 10% fetal bovine serum and 1% Penicillin-Streptomycin. The human leukemia cell line MOLM-14 was cultured in Minimum Essential Medium Alpha Medium supplemented with 10% Fetal Bovine Serum and 1% Penicillin-Streptomycin. All the cell lines were maintained at 37° C. with 5% CO2.
For MOLM-14 cell line, which grows in suspension, 30,000 cells were plated onto 96-well plates immediately before the assay.
(§2) Compounds were added at different concentrations to each well, and cell cultures were incubated for 72 h. Vehicle (DMSO or H2O) was used as a control, and all compounds were tested in a constant percentage of vehicle. Cell outgrowth was measured using for adherent cells CellTiter […] Aqueous One Solution Cell Proliferation Assay (Promega) and for cell suspension, Sulforhodamine B colorimetric assay as described in Vichai et al. (Vichai, V. and Kirtikara, K. Nat. Protoc. 2006 (1) 1112-1116). Absorbance was measured using an Infinite F200 Pro or Sunrise TECAN plate reader.
(§3) In each experiment, each point represents the average of two replicates in cell culture.
(§4) Results are presented in Table 1 below for concentrations of 10 μM of tested compounds.

[2] = test system: HCT-116; assay: Cell proliferation assay at 10 μM; assay type: cell-based; conditions: Homo sapiens, HCT-116, 72 h, read-out: Cell viability observed at 10 μM
Protocol: as §1
(§5) Briefly, adherent cells, A375 and HCT-116 cells were respectively plated at 800 or 5,000 cells per well onto 96-well plates in 90 μL of media per well and were allowed to grow overnight before the assay.
as §2, §3, §4

[3] = test system: MOLM-14; assay: EC50 determination in cancer cell lines; assay type: cell-based; conditions: Homo sapiens, 72 h
Protocol: as §2
(§6) The human melanoma cell line A375, colorectal carcinoma cell line HCT-116, hepatocellular carcinoma cell line HepG2 were cultured in Dulbecco's modified Eagle's medium supplemented with 10% fetal bovine serum and 1% Penicillin-Streptomycin. The human melanoma cell lines SK-MEL-28 and SK-MEL-5 were cultured in Minimum Essential Medium. The colorectal carcinoma cell lines HT-29 and Colo205 were respectively cultured in Mc Coy's and RPMI media. The human leukemia cell lines MV4-11 and KG-1 were cultured in Iscove's Modified Dulbecco's Media. The human leukemia cell line MOLM-14 was cultured in Minimum Essential Medium Alpha Medium supplemented with 10% Fetal Bovine Serum and 1% Penicillin-Streptomycin All culture media were supplemented with 10% fetal bovine serum and 1% Penicillin-Streptomycin except for MV4-11 cell line 20% fetal bovine serum and 1% Penicillin-Streptomycin. All the cell lines were maintained at 37° C. with 5% C02.
(§7) Briefly, adherent cells, A375, HCT-116, HepG2, SK-MEL-28, SK-MEL-5, HT-29 and Colo205 cells were respectively plated at 800, 5,000, 7,000, 2,500, 3,000-5,000, 5,000 or 5,000 cells per well onto 96-well plates in 90 μL of media per well and were allowed to grow overnight before the assay. For MV4-11 and KG-1 cells that grow in suspension, 40,000-60,000 cells were plated onto 96-well plates immediately before the assay. MOLM-14 cell line, that grow in suspension, 30,000 cells were plated onto 96-well plates immediately before the assay.
(§8) The cell growth measure was the same as described in example 51.
(§9) The experimental data are analyzed using a computer program, Graphpad Prism (GraphPad Software, Inc. La Jolla, Calif.) and EC50 values were determined as the dose of compound required to reduce absorbance values to 50% of the signal obtained for vehicle treated cell cultures and were a mean of at least two independent experiments except for EC50 values with (*) where […].

[4] = test system: A-375; assay: EC50 determination in cancer cell lines; assay type: cell-based, human
Protocol: as §2, §6, §7, §8, §9

[5] = test system: HepG2; assay: EC50 determination in cancer cell lines; assay type: cell-based, human
Protocol: as §2, §6, §7, §8, §9

[6] = test system: HCT-116; assay: EC50 determination in cancer cell lines; assay type: cell-based, human
Protocol: as §2, §6
Briefly, adherent cells, A375, HCT-116, HepG2, SK-MEL-28, SK-MEL-5, HT-29 and Colo205 cells were respectively plated at 800, 5,000, 7,000, 2,500, 3,000-5,000, 5,000 or 5,000 cells per well onto 96-well plates in 90 μL of media per well and were allowed to grow overnight before the assay. For MV4-11 and KG-1 cells that grow in suspension, 40,000-60,000 cells were plated onto 96-well plates immediately before the assay. MOLM-14 cell line, that grow in suspension, 30,000 cells were plated onto 96-well plates immediately before the assay. […]
as §9

[7] = test system: A375; assay: Cell proliferation assay at 10 μM; assay type: cell-based, human; conditions: Homo sapiens, read-out: Cell viability observed at 10 μM
Protocol: as §1, §5, §2, §3, §4

[8] = test system: patient derived acute myeloid leukemia (AML) cell lines; assay: Cell growth inhibition assay, patient derived AML cells; assay type: cell-based, human; conditions: 48 h
Protocol: The patient derived acute myeloid leukemia (AML) cells were obtained after written informed consent under the Institut Paoli Calmette (IPC) institutional review board approval and under the strict compliance of the Helsinki declaration on medical research involving human subjects. […] Each compound was added at different concentrations (combinations of six concentrations) to each well, and cell cultures were incubated for 48 h. Vehicle (H2O) was used as a control, and all compounds were tested in a constant percentage of vehicle. Cell outgrowth was measured using the CellTiter-Glo luminescent cell viability assay as described by the manufacturer (Promega, Ref G7571 Madison, Wis., USA) using a Centro (Berthold, France) plate reader. In each experiment, each point represents the average of triplicates in cell culture. The experimental data are analyzed using a computer program, Graphpad Prism (GraphPad Software, Inc.

[9] = test system: PBMC Healthy voluntary donor; assay: Cell growth inhibition assay, PBMC of healthy donors; assay type: cell-based, human; conditions: PBMC Healthy voluntary donor 1
Protocol: Each compound was added at different concentrations (combinations of six concentrations) to each well, and cell cultures were incubated for 48 h. Vehicle (H2O) was used as a control, and all compounds were tested in a constant percentage of vehicle. Cell outgrowth was measured using the CellTiter-Glo luminescent cell viability assay as described by the manufacturer (Promega, Ref G7571 Madison, Wis., USA) using a Centro (Berthold, France) plate reader. In each experiment, each point represents the average of triplicates in cell culture. The experimental data are analyzed using a computer program, Graphpad Prism (GraphPad Software, Inc.

SMILES	viability at 10 µM ([1]; MOLM-14, 72 h)	viability at 10 µM [2]	EC50 [3]	EC50 ([4]; Homo sapiens, A-375, 72 h)	EC50 ([5]; Homo sapiens, HepG2, 72 h)	EC50 ([6]; Homo sapiens, HCT-116, 72 h)	viability at 10 µM ([7]; A-375, 72 h)	further results
COc1ccc(-c2cc(N3CCC(NC(C)(C)C)CC3)c3ccccc3n2)cc1 [XV-8, 2-(4-methoxy-phenyl)-4-(4-N-tert-butylamino-piperidin-1-yl)quinoline dihydrochloride]	< 20%	> 80%	3 µM	10 µM	27 µM	17 µM	20 to 40%	–
CCN(CC)C1CCN(Cc2cc(-c3ccccc3)nc3cc(Cl)ccc23)CC1 [XVII-6, 7-Chloro-2-phenyl-4-[4-(N,N-diethylamino)-piperidin-1-ylmethyl]quinoline dihydrochloride]	< 20%	< 20%	5 µM	3 µM	8 µM	4 µM	< 20%	–
CCN(CC)C1CCN(c2cc(-c3ccc4ccccc4c3)nc3ccccc23)CC1 [VI-5, 2-(2-naphtyl)-4-(4-N,N-diethylamino-piperidin-1-yl)quinoline]	–	–	5 µM	4 µM	11 µM	6 µM	–	–
CC(c1cc(-c2ccccc2)nc2ccccc12)N1CCC(NC(C)(C)C)CC1 (stereo not drawn) [XXIII-2, 2-phenyl-4-{1-[4-N-tert-butylamino-piperidinyl]-eth-1-yl}quinoline dihydrochloride]	< 20%	20 to 40%	6 µM	–	–	–	< 20%	EC50 ([4]; Homo sapiens, 72 h): 8 µM; EC50 ([5]; Homo sapiens, 72 h): 18 µM; EC50 ([6]; Homo sapiens, 72 h): 11 µM
CN(C)CCCNCc1cc(-c2ccccc2)nc2cc(Cl)ccc12 [XLIV-1, N^1,N^1-dimethyl-N^3-(7-chloro-2-phenylquinoline-4-ylmethyl)-propane-1,3-diamine]	–	–	6 µM	4 µM	10 µM	6 µM	–	–
CCN(CC)C1CCN(c2cc(-c3ccccc3)nc3cc(Cl)ccc23)CC1 [II-3, 7-chloro-2-phenyl-4-(4-N,N-diethylamino-piperidin-1-yl)quinoline]	–	–	5 µM	3 µM	8 µM	4 µM	–	–
CN(C)CCCNc1cc(-c2ccccc2)nc2ccccc12 [XL-2, N^1,N^1-dimethyl-N^3-(2-phenylquinoline-4-yl)propane-1,3-diamine trifluoroacetate salt]	–	–	3 µM	3 µM	17 µM	5 µM	–	viability at 10 µM ([1]; MOLM-14, 10 μM, 72 h, % of cell viability remaining): < 20%; viability at 10 µM ([2]; HCT-116, 10 μM, 72 h, % of cell viability remaining): 20 to 40%; viability at 10 µM ([7]; A-375, A375, 10 μM, 72 h, % of cell viability remaining): < 20%
CCN(CC)C1CCN(C(C)c2cc(-c3ccccc3)nc3cc(Cl)ccc23)CC1 (stereo not drawn) [XVI-4, 7-Chloro-2-phenyl-4-{1-[4-(N,N-diethylamino)-piperidin-1-yl]-eth-1-yl}quinoline dihydrochloride]	< 20%	< 20%	6 µM	4 µM	13 µM	6 µM	< 20%	–
Nc1ccn([C@@H]2O[C@H](CO)[C@@H](O)[C@@H]2O)c(=O)n1 [AraC, cytosine arabinoside, reference compound]	–	–	–	–	–	–	–	EC50 ([8]; Patient 3, subtype Tri8): 44 µM; EC50 ([8]; Patient 8, subtype FLT3−): 51 µM; EC50 ([8]; Patient 9, subtype FLT3+): 21 µM; EC50 ([8]; Patient 10, subtype Inv 3): 36 µM; EC50 ([8]; Patient 12, subtype 5 & 7): > 40 µM; EC50 ([8]; Patient 13, subtype MLL): 3 µM; EC50 ([8]; Patient 16, subtype Inv 3): 11 µM; EC50 [9]: 13 µM
CN(C)CCCNc1cc(-c2ccccc2)nc2ccccc12 [XLI-1, N^1,N^1-dimethyl-N^3-(2-phenylquinoline-4-yl)propane-1,3-diamine]	–	–	–	–	–	–	–	EC50 ([4]; 72 h): 2 µM; EC50 ([5]; 72 h): 10 µM; EC50 ([6]; 72 h): 4 µM
CN(C)CCCNc1cc(-c2ccc3ccccc3c2)nc2ccccc12 [XLII-2, N^1,N^1-dimethyl-N^3-[2-(naphtalen-2-yl)quinoline-4-yl]propane-1,3-diamine hydrochloride salt]	< 20%	< 20%	4 µM	3 µM	19 µM	11 µM	< 20%	–
CCN(CC)C1CCN(c2cc(-c3ccc(-c4ccccc4)cc3)nc3ccccc23)CC1 [IX-2, 2-(1,1′-biphenyl)-4-yl-4-(4-N,N-diethylamino-piperidin-1-yl)quinoline dihydrochloride]	< 20%	< 20%	4 µM	3 µM	13 µM	4 µM	< 20%	–
